Measurements from PubChem BioAssay AID248 (DTP/NCI, 2004).
“And” between values parts separate entries of the source, which are not always exact repeats. Identical values can stand only once. Inconclusive results and toxic doses are left out. Cut-off read from the data, not from the text of the source: active = T/C of 150% or more; inactive = T/C below 125%.

System: L1210 leukemia ip in BDF1 mice, survival T/C
Test: NCI In Vivo Anticancer Drug Screen. Data for tumor model L1210 Leukemia (intraperitoneal) in B6D2F1 (BDF1) mice
Details: endpoint: mean survival time, higher = longer survival
Method in brief: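 Tumor cells were implanted, animals were treated, and survival was followed. The result divides the treated measurement by the vehicle-control measurement.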

[1] = dose: 100.0 mg/kg/injection, schedule: Q04DX003 (ip), vehicle: saline with Tween-80
[2] = dose: 200.0 mg/kg/injection, schedule: Q04DX003 (ip), vehicle: saline with Tween-80
[3] = dose: 400.0 mg/kg/injection, schedule: Q04DX003 (ip), vehicle: saline with Tween-80
[4] = dose: 100.0 mg/kg/injection, schedule: Q04DX003 (ip), vehicle: acetone
[5] = dose: 100.0 mg/kg/injection, schedule: Q01DX009 (ip), vehicle: Klucel (hydroxypropylcellulose) (HPC)
[6] = dose: 200.0 mg/kg/injection, schedule: Q01DX009 (ip), vehicle: Klucel (hydroxypropylcellulose) (HPC)
[7] = dose: 50.0 mg/kg/injection, schedule: Q01DX009 (ip), vehicle: Klucel (hydroxypropylcellulose) (HPC)

Measured: T/C

CCOC(=O)c1ccc(NC(=O)Nc2ccc(OC)cc2OC)cc1
inactive: dose: 12.5 mg/kg/injection, schedule: Q01DX009 (ip), vehicle: saline with Tween-80 94 % of control and 95 % of control | dose: 25.0 mg/kg/injection, schedule: Q01DX009 (ip), vehicle: saline with Tween-80 94 % of control and 103 % of control | dose: 50.0 mg/kg/injection, schedule: Q01DX009 (ip), vehicle: saline with Tween-80 95 % of control and 87 % of control | dose: 100.0 mg/kg/injection, schedule: Q01DX001 (ip), vehicle: saline with Tween-80 86 % of control | dose: 100.0 mg/kg/injection, schedule: Q04DX002 (ip), vehicle: saline with Tween-80 97 % of control | dose: 200.0 mg/kg/injection, schedule: Q01DX001 (ip), vehicle: saline with Tween-80 89 % of control | dose: 200.0 mg/kg/injection, schedule: Q04DX002 (ip), vehicle: saline with Tween-80 91 % of control | dose: 400.0 mg/kg/injection, schedule: Q01DX001 (ip), vehicle: saline with Tween-80 91 % of control | dose: 400.0 mg/kg/injection, schedule: Q04DX002 (ip), vehicle: saline with Tween-80 93 % of control

OC(O)C(F)(F)F
inactive: dose: 100.0 mg/kg/injection, schedule: Q01DX009 (ip), vehicle: saline with Tween-80 109 % of control | [1] 111 % of control | dose: 200.0 mg/kg/injection, schedule: Q01DX009 (ip), vehicle: saline with Tween-80 121 % of control | [2] 104 % of control | dose: 400.0 mg/kg/injection, schedule: Q01DX009 (ip), vehicle: saline with Tween-80 97 % of control | [3] 105 % of control

COc1cc2c(cc1OC)C1CCc3cc(OC)c(OC)cc3C1N=C2 (configuration not stated)
inactive: dose: 80.0 mg/kg/injection, schedule: Q01DX009 (ip), vehicle: saline 102 % of control | dose: 120.0 mg/kg/injection, schedule: Q01DX009 (ip), vehicle: saline 93 % of control | dose: 240.0 mg/kg/injection, schedule: Q01DX009 (ip), vehicle: saline 93 % of control | dose: 360.0 mg/kg/injection, schedule: Q01DX009 (ip), vehicle: saline 93 % of control

O=S(=O)(/C=C(/Cl)c1ccccc1)c1ccccc1
inactive: dose: 25.0 mg/kg/injection, schedule: Q01DX009 (ip), vehicle: acetone 92 % of control | dose: 50.0 mg/kg/injection, schedule: Q01DX009 (ip), vehicle: acetone 90 % of control | dose: 100.0 mg/kg/injection, schedule: Q01DX001 (ip), vehicle: acetone 101 % of control | [4] 103 % of control | dose: 200.0 mg/kg/injection, schedule: Q01DX001 (ip), vehicle: acetone 102 % of control | dose: 400.0 mg/kg/injection, schedule: Q01DX001 (ip), vehicle: acetone 104 % of control

CCN(CC)C(=O)Cn1ccc(NC(C)=O)nc1=O
inactive: dose: 100.0 mg/kg/injection, schedule: Q01DX009 (ip), vehicle: saline 104 % of control | dose: 100.0 mg/kg/injection, schedule: Q04DX003 (ip), vehicle: saline 106 % of control | dose: 200.0 mg/kg/injection, schedule: Q01DX009 (ip), vehicle: saline 98 % of control | dose: 200.0 mg/kg/injection, schedule: Q04DX003 (ip), vehicle: saline 113 % of control | dose: 400.0 mg/kg/injection, schedule: Q01DX009 (ip), vehicle: saline 98 % of control | dose: 400.0 mg/kg/injection, schedule: Q04DX003 (ip), vehicle: saline 111 % of control

CCOC(=O)C(CC(C)C)NC(=O)c1ccc(C)c2c1Nc1c(c(C)c3oc(=O)c(C)nc3c1C(=O)NC(CC(C)C)C(=O)OCC)O2 (configuration not stated)
inactive: dose: 75.0 mg/kg/injection, schedule: Q01DX001 (ip), vehicle: other 91 % of control | dose: 150.0 mg/kg/injection, schedule: Q01DX001 (ip), vehicle: other 86 % of control | dose: 300.0 mg/kg/injection, schedule: Q01DX001 (ip), vehicle: other 88 % of control

O=C(Nc1ccccc1F)OCCOc1ccc(Br)cc1
inactive: [5] 103 % of control | [6] 97 % of control | dose: 400.0 mg/kg/injection, schedule: Q01DX009 (ip), vehicle: Klucel (hydroxypropylcellulose) (HPC) 123 % of control

NC(N)=NCCCCNCCCN=C(N)N
inactive: dose: 75.0 mg/kg/injection, schedule: Q01DX001 (ip), vehicle: saline 98 % of control | dose: 150.0 mg/kg/injection, schedule: Q01DX001 (ip), vehicle: saline 107 % of control

c1ccc2c3csccc-3nc2c1
inactive: dose: 12.5 mg/kg/injection, schedule: Q01DX009 (ip), vehicle: saline 92 % of control | dose: 25.0 mg/kg/injection, schedule: Q01DX009 (ip), vehicle: saline 98 % of control | [7] 94 % of control | dose: 50.0 mg/kg/injection, schedule: Q01DX009 (ip), vehicle: saline 97 % of control | [5] 92 % of control | [4] 94 % of control and 98 % of control | [6] 92 % of control | dose: 200.0 mg/kg/injection, schedule: Q04DX003 (ip), vehicle: acetone 97 % of control

CC1C(=O)OCC1C(c1ccccc1)(c1ccccc1)c1ccccc1 (configuration not stated)
inactive: dose: 100.0 mg/kg/injection, schedule: Q04DX002 (ip), vehicle: gum acacia 100 % of control | dose: 200.0 mg/kg/injection, schedule: Q04DX002 (ip), vehicle: gum acacia 103 % of control | dose: 400.0 mg/kg/injection, schedule: Q04DX002 (ip), vehicle: gum acacia 89 % of control

O=P1(N(CCF)CCF)NCCCO1 (configuration not stated)
inactive: dose: 2.5 mg/kg/injection, schedule: Q01DX Z (ip), vehicle: saline 96 % of control | dose: 5.0 mg/kg/injection, schedule: Q01DX Z (ip), vehicle: saline 91 % of control | dose: 10.0 mg/kg/injection, schedule: Q01DX Z (ip), vehicle: other 93 % of control | dose: 10.0 mg/kg/injection, schedule: Q01DX Z (ip), vehicle: saline 115 % of control | dose: 30.0 mg/kg/injection, schedule: Q01DX Z (ip), vehicle: other 106 % of control

CCC(/C=C\C(C)C1CCC2C3CC=C4CC(O)CCC4(C)C3CCC12C)C(C)C (configuration not stated)
inactive: dose: 75.0 mg/kg/injection, schedule: Q01DX009 (sc), vehicle: steriod suspending solution 94 % of control | dose: 100.0 mg/kg/injection, schedule: Q01DX001 (ip), vehicle: carboxymethylcellulose (CMC) 89 % of control | dose: 100.0 mg/kg/injection, schedule: Q04DX003 (sc), vehicle: steriod suspending solution 97 % of control | dose: 150.0 mg/kg/injection, schedule: Q01DX009 (sc), vehicle: steriod suspending solution 98 % of control | dose: 200.0 mg/kg/injection, schedule: Q01DX001 (ip), vehicle: carboxymethylcellulose (CMC) 89 % of control | dose: 200.0 mg/kg/injection, schedule: Q04DX003 (sc), vehicle: steriod suspending solution 100 % of control | dose: 300.0 mg/kg/injection, schedule: Q01DX009 (sc), vehicle: steriod suspending solution 97 % of control | dose: 400.0 mg/kg/injection, schedule: Q01DX001 (ip), vehicle: carboxymethylcellulose (CMC) 86 % of control | dose: 400.0 mg/kg/injection, schedule: Q04DX003 (sc), vehicle: steriod suspending solution 95 % of control

COc1ccc(-c2coc3cc(O)ccc3c2=O)cc1
inactive: [1] 96 % of control | [2] 96 % of control | [3] 96 % of control

O=C(O)CC1=C(O)c2ccccc2C(=O)C1=O
inactive: dose: 100.0 mg/kg/injection, schedule: Q01DX001 (ip), vehicle: water 97 % of control | dose: 200.0 mg/kg/injection, schedule: Q01DX001 (ip), vehicle: water 103 % of control | dose: 400.0 mg/kg/injection, schedule: Q01DX001 (ip), vehicle: water 97 % of control

CC1C(C(=O)c2ccc(-c3ccccc3)cc2)N1C1CCCCC1 (configuration not stated)
inactive: [1] 93 % of control | [2] 86 % of control

CN(/N=N/c1nc[nH]c1C(=O)NN)C1CCCCC1
inactive: dose: 50.0 mg/kg/injection, schedule: Q01DX001 (ip), vehicle: other 95 % of control | dose: 100.0 mg/kg/injection, schedule: Q01DX001 (ip), vehicle: other 101 % of control | dose: 200.0 mg/kg/injection, schedule: Q01DX001 (ip), vehicle: other 98 % of control

COc1ccc(OC)c(CC(Cl)(C#N)C#N)c1
inactive: dose: 12.0 mg/kg/injection, schedule: Q01DX009 (ip), vehicle: Klucel (hydroxypropylcellulose) (HPC) 100 % of control | dose: 25.0 mg/kg/injection, schedule: Q01DX009 (ip), vehicle: Klucel (hydroxypropylcellulose) (HPC) 102 % of control | [7] 102 % of control | dose: 200.0 mg/kg/injection, schedule: Q04DX003 (ip), vehicle: Klucel (hydroxypropylcellulose) (HPC) 105 % of control

COC1OC(COC(C)=O)C(OC(C)=O)C(NC(=O)NCCCl)C1OC(C)=O (configuration not stated)
inactive: dose: 100.0 mg/kg/injection, schedule: Q01DX001 (ip), vehicle: Klucel (hydroxypropylcellulose) (HPC) 105 % of control | dose: 200.0 mg/kg/injection, schedule: Q01DX001 (ip), vehicle: Klucel (hydroxypropylcellulose) (HPC) 102 % of control | dose: 400.0 mg/kg/injection, schedule: Q01DX001 (ip), vehicle: Klucel (hydroxypropylcellulose) (HPC) 102 % of control
